These results are taken from patent US10766928B2, “Targeted conformationally-constrained kinked endosomal disrupting peptides” (priority 2012, dated 2020).

Data set [1] deals with endosomes of Jurkat lymphocytes. Kind of data set: Endosome disruption in Jurkat lymphocytes: release of carboxyfluorescein from disulfide probe Compound 2, flow cytometry. To be noted: 14 h. In outline:
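Human Jurkat cells treated with compounds plus disulfide probe Compound 2 (2.5 μM) for 14 h at 37 °C. Cytoplasmic release of pH-sensitive fluorophore Compound 3 quantified by flow cytometry. IC50 by non-linear regression; efficacy as % fluorescence change relative to Compound 1 maximum (100%).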

The nature of data set [2]: Thermodynamic solubility in PBS (pH 7.4). Particulars: phosphate buffered saline, pH 7.4, Table 1; PBS pH 7.4, 24 hours at 22° C., ±S.D.; read-out: Solubility (aq.). It counts as physicochemical. From the text: Values in parentheses represent 95% confidence intervals. N.D., not determined.
Measurements represent duplicate or more replicates, with active peptides subjected to multiple replicates. ND: not determined. The peptide was non-toxic and soluble in cell culture medium at this concentration.

The next data set deals with Jurkat lymphocytes. Particulars: 48 h.

≈ marks a conversion by molar mass, not a printed value. Non-standard residues stand in square brackets, D forms with d. Residues, ends and D or L forms follow the SMILES beside them. *: point of attachment. Cholesteryloxycarbonyl = CC(C)CCC[C@@H](C)[C@H]1CC[C@H]2[C@@H]3CC=C4C[C@@H](OC(=O)*)CC[C@]4(C)[C@H]3CC[C@]12C; PEG3 = NCCOCCOCCOCCC(=O)O; Pra = C#CC[C@H](N)C(=O)O; Aib = CC(C)(N)C(=O)O; βAla = NCCC(=O)O

For the molecule `C#CC[C@H](NC(=O)[C@H](CCC(=O)O)NC(=O)[C@H](CCC(=O)O)NC(=O)CCNC(=O)CCNC(=O)O[C@H]1CC[C@@]2(C)C(=CC[C@H]3[C@@H]4CC[C@H]([C@H](C)CCCC(C)C)[C@@]4(C)CC[C@@H]32)C1)C(=O)NCCOCCOCCOCCC(=O)NCCOCCOCCOCCC(=O)NC(C)(C)C(=O)NC(C)(C)C(=O)NC(C)(C)C(=O)NC(C)(C)C(=O)N[C@@H](Cc1c[nH]c2ccccc12)C(=O)N[C@@H](Cc1c[nH]c2ccccc12)C(=O)N[C@@H](C)C(=O)N[C@@H](Cc1ccc(O)cc1)C(=O)N[C@@H](Cc1c[nH]c2ccccc12)C(=O)N1CCC[C@H]1C(=O)N1CCC[C@H]1C(=O)N[C@H](C(=O)N[C@H](C(N)=O)C(C)C)C(C)C` [Compound 36, R″ = BEEZOOUUUUWWAYWPPVV-CONH2] ({Cholesteryloxycarbonyl-βAla-βAla}-EE[Pra][PEG3][PEG3][Aib][Aib][Aib][Aib]WWAYWPPVV-NH2), in data set [1], the EC50 amounted to 0.06 µM. Moreover, the solubility thermodynamic at 24 h in data set [2] came to 233 ± 21 µM (≈ 666 µg/mL). Inhibition with Jurkat lymphocytes was half-maximal at 13 µM (IC50).
